Measured values as given in patent US10160747B2, “Compounds and methods for kinase modulation, and indications therefor” (Plexxikon Inc., priority 2016, dated 2018).

Tests used:
[1] = system: MOLM-14 F691L (endogenous FLT3 ITD and transfected FLT3 F691L); assay: MOLM-14 F691L cell proliferation assay (CellTiter-Glo); assay type: cell-based; settings: Homo sapiens, MOLM-14, 72 h; 3 d growth, GMean
Outline: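 MOLM-14 derivatives carrying D835Y or F691L, selected under escalating AC220, were seeded at 1×10^4 cells/well and exposed to an 8-point 1:3 compound series (1 to 0.00046 μM, 0.2% DMSO final) for three days at 37° C., 5% CO2. CellTiter-Glo luminescence (ATP content) versus concentration gave IC50.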

FLT3-D835Y = biological target: T1, FLT3-D835Y (Homo sapiens, UniProt P36888, D835Y); assay: FLT3-D835Y recombinant enzyme kinase assay (AlphaScreen); assay type: biochemical; settings: 8 pt, GMean
T1 construct: purchased Invitrogen PV3967
T1 sequence (P36888 27-993 D835Y): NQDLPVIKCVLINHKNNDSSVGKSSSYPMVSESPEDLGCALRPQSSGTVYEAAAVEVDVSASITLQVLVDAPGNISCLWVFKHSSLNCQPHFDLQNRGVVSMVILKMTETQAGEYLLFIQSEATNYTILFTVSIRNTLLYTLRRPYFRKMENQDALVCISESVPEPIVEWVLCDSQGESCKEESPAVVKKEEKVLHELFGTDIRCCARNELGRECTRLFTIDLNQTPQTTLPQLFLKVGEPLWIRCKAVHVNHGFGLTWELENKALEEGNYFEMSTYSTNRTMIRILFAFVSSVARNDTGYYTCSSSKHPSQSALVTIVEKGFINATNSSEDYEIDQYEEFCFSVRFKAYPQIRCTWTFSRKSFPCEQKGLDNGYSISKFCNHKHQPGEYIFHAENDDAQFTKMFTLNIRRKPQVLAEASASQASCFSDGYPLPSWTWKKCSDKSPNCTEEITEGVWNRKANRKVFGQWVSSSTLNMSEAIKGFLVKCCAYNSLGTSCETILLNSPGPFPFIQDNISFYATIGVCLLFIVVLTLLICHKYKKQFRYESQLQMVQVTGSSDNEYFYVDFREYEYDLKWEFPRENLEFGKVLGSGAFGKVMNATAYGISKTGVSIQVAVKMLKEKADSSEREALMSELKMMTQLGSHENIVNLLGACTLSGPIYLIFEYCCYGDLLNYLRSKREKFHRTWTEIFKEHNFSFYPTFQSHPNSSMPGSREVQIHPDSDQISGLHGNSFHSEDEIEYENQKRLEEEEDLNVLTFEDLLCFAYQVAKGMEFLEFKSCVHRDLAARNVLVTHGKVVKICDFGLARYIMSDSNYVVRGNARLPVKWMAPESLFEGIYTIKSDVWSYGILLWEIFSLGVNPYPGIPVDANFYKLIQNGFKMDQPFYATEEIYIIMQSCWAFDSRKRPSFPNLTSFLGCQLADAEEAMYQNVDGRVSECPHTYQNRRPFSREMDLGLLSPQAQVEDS
Procedure: In order to determine the effect of compounds on FLT3 catalytic activity, kinase assays using recombinant enzymes and AlphaScreen® technology have been established. The catalytic activity of c-kit activity was also measured to determine selectivity of the compounds. When the kinases are catalytically active, they phosphorylate a biotinylated peptide substrate on tyrosine residues. Using AlphaScreen® technology, the ability of the compounds to affect the catalytic activity of the kinases can be measured quantitatively. The peptide substrate is immobilized by the AlphaScreen® Streptavidin Donor beads and, upon phosphorylation by a tyrosine kinase, can bind to AlphaScreen® Anti-Phosphotyrosine (PY20) Acceptor beads. Upon excitation of these beads with laser light at 680 nm, singlet oxygen is produced. This singlet oxygen is rapidly quenched, unless the AlphaScreen® Anti-Phosphotyrosine (PY20) Acceptor beads are in close proximity, in which case a proximity signal can be measured at 580 nm. In the presence of catalytic activity, there is a very strong proximity signal. Selective kinase inhibitors affect a decrease in this proximity signal through a decrease in tyrosine phosphorylation of the peptide substrate.
The assay was performed as summarized below.
Poly (Glu4-Tyr) Peptide, biotin conjugate [Biotin-GG(EEEEY)10EE] (SEQ ID NO: 4)
Final concentration=30 nM
Adenosine Triphosphate (ATP)
Final concentration for IC50 determination=10 μM (FLT3-D835Y or FLT3-ITD) or 100 μM (c-KIT)
AlphaScreen® Phosphotyrosine (PY20) Assay Kit
Final concentration=10 μg/mL
Dilute compounds in DMSO to 20× final concentration.
Add 1 μL of compound to each well of 384 well reaction plate (Perkin Elmer #6005359).
Mix enzyme and Poly (Glu4-Tyr) Peptide substrate at 1.33× final concentration in assay buffer.
Mix ATP at 5× final concentration in assay buffer.
Add 15 μL enzyme/substrate mixture to the reaction plate.
Add 4 μL of ATP to the reaction plate.
Mix Streptavidin Donor beads at 6× final concentration in Stop/Detection buffer.
Add 5 μL Streptavidin Donor beads to the reaction plate. Centrifuge 1 minute, shake to mix, and incubate at room temperature for 20 minutes.
Mix Anti-Phosphotyrosine (PY20) Acceptor beads at 6× final concentration in Stop/Detection buffer.
Add 5 μL Anti-Phosphotyrosine (PY20) beads to the reaction plate.
Centrifuge 1 minute, shake to mix, and incubate at room temperature for 60 minutes.
Read plate on Wallac EnVision™ 2103 Multilabel Reader.

| Structure (SMILES) | IC50 [1] | IC50 (FLT3-D835Y) |
| --- | --- | --- |
| COc1ncc(NC(=O)Cc2ccc(-c3cnc(Nc4cn(C)cn4)nc3)cc2)cc1C(F)(F)F [Compound P-0149, N-[6-methoxy-5-(trifluoromethyl)-3-pyridyl]-2-[4-[2-[(1-methylimidazol-4-yl)amino]pyrimidin-5-yl]phenyl]acetamide] | 0.0001 to 10 µM | 0.0001 to 10 µM |
| Cn1cc(Nc2ncc(-c3ccc(CC(=O)Nc4cnc(F)c(C(C)(F)F)c4)c(F)c3)cn2)cn1 [Compound P-0105, N-[5-(1,1-difluoroethyl)-6-fluoro-3-pyridyl]-2-[2-fluoro-4-[2-[(1-methylpyrazol-4-yl)amino]pyrimidin-5-yl]phenyl]acetamide] | 0.0001 to 10 µM | 0.0001 to 10 µM |
| CC(C)c1cc(NC(=O)Cc2ccc(-c3cnc(Nc4cnn(C)c4)nc3)cc2F)ccn1 [Compound P-0094, 2-[2-fluoro-4-[2-[(1-methylpyrazol-4-yl)amino]pyrimidin-5-yl]phenyl]-N-(2-isopropyl-4-pyridyl)acetamide] | 0.0001 to 10 µM | 0.0001 to 10 µM |
| Cn1cc(Nc2ncc(-c3ccc(CC(=O)Nc4cc(C(F)(F)F)ncn4)cc3)cn2)cn1 [Compound P-0135, 2-[4-[2-[(1-methylpyrazol-4-yl)amino]pyrimidin-5-yl]phenyl]-N-[6-(trifluoromethyl)pyrimidin-4-yl]acetamide] | 0.0001 to 10 µM | 0.0001 to 10 µM |
| Cn1cc(Nc2ncc(-c3ccc(CC(=O)Nc4ccnc(C5CC5)c4)cc3)cn2)cn1 [Compound P-0097, N-(2-cyclopropyl-4-pyridyl)-2-[4-[2-[(1-methylpyrazol-4-yl)amino]pyrimidin-5-yl]phenyl]acetamide] | 0.0001 to 10 µM | 0.0001 to 10 µM |
| Cn1cc(Nc2ncc(-c3ccc(CC(=O)NCc4cccnc4)cc3)cn2)cn1 [Compound P-0132, 2-[4-[2-[(1-methylpyrazol-4-yl)amino]pyrimidin-5-yl]phenyl]-N-(3-pyridylmethyl)acetamide] | 0.0001 to 10 µM | – |
| Cc1cc(-c2cnc3[nH]c(-c4ccccc4)cc3c2)ccc1CC(=O)Nc1cccc(C(F)(F)F)c1 [Compound P-0001, 2-[2-methyl-4-(2-phenyl-1H-pyrrolo[2,3-b]pyridin-5-yl)phenyl]-N-[3-(trifluoromethyl)phenyl]acetamide] | 0.0001 to 10 µM | – |
| Cn1cc(Nc2ncc(-c3ccc(CC(=O)Nc4cnnc(Cl)c4)cc3)cn2)cn1 [Compound P-0151, N-(6-chloropyridazin-4-yl)-2-[4-[2-[(1-methylpyrazol-4-yl)amino]pyrimidin-5-yl]phenyl]acetamide] | – | 0.0001 to 10 µM |
| Cn1cc(Nc2ncc(-c3ccc(CC(=O)NCc4ncccc4C(F)(F)F)cc3)cn2)cn1 [Compound P-0159, 2-[4-[2-[(1-methylpyrazol-4-yl)amino]pyrimidin-5-yl]phenyl]-N-[[3-(trifluoromethyl)-2-pyridyl]methyl]acetamide] | 0.0001 to 10 µM | – |

Other lines, results leading:

| IC50 [1] | IC50 (FLT3-D835Y) | Structure (SMILES) |
| --- | --- | --- |
| 0.0001 to 10 µM | – | N#Cc1cc(-c2cc3cc(-c4ccc(CC(=O)Nc5cncc(C(F)(F)F)c5)cc4F)cnc3[nH]2)ccn1 [Compound P-0199, 2-[4-[2-(2-cyano-4-pyridyl)-1H-pyrrolo[2,3-b]pyridin-5-yl]-3-fluoro-phenyl]-N-[5-(trifluoromethyl)-3-pyridyl]acetamide] |
| – | 0.0001 to 10 µM | Cc1ncc(NC(=O)Cc2ccc(-c3cnc4[nH]nc(C)c4c3)c(F)c2)cc1C(F)(F)F [Compound P-0172, 2-[3-fluoro-4-(3-methyl-1H-pyrazolo[3,4-b]pyridin-5-yl)phenyl]-N-[6-methyl-5-(trifluoromethyl)-3-pyridyl]acetamide] |
| 0.0001 to 10 µM | 0.0001 to 10 µM | CCn1cc(Nc2ncc(-c3ccc(CC(=O)Nc4cncc(C(F)(F)F)c4)cc3)cn2)cn1 [Compound P-0166, 2-[4-[2-[(1-ethylpyrazol-4-yl)amino]pyrimidin-5-yl]phenyl]-N-[5-(trifluoromethyl)-3-pyridyl]acetamide] |
| – | 0.0001 to 10 µM | Cc1n[nH]c2ncc(-c3ccc(CC(=O)Nc4cncc(C(F)(F)F)c4)cc3F)cc12 [Compound P-0177, 2-[3-fluoro-4-(3-methyl-1H-pyrazolo[3,4-b]pyridin-5-yl)phenyl]-N-[5-(trifluoromethyl)-3-pyridyl]acetamide] |
| – | 0.0001 to 10 µM | Cc1n[nH]c2ncc(-c3cc(F)c(CC(=O)Nc4cncc(C(F)(F)F)c4)cc3F)cc12 [Compound P-0173, 2-[2,5-difluoro-4-(3-methyl-1H-pyrazolo[3,4-b]pyridin-5-yl)phenyl]-N-[5-(trifluoromethyl)-3-pyridyl]acetamide] |
| – | 0.0001 to 10 µM | N#Cc1cc(-c2cc3cc(-c4ccc(CC(=O)Nc5cc(C(F)(F)F)ccn5)cc4F)cnc3[nH]2)ccn1 [Compound P-0194, 2-[4-[2-(2-cyano-4-pyridyl)-1H-pyrrolo[2,3-b]pyridin-5-yl]-3-fluoro-phenyl]-N-[4-(trifluoromethyl)-2-pyridyl]acetamide] |
| – | 0.0001 to 10 µM | N#Cc1ccc(-c2cc3cc(-c4ccc(CC(=O)Nc5cncc(C(F)(F)F)c5)cc4F)cnc3[nH]2)cn1 [Compound P-0195, 2-[4-[2-(6-cyano-3-pyridyl)-1H-pyrrolo[2,3-b]pyridin-5-yl]-3-fluoro-phenyl]-N-[5-(trifluoromethyl)-3-pyridyl]acetamide] |
| 0.0001 to 10 µM | – | COc1ccccc1CNC(=O)Cc1ccc(-c2cnc(Nc3cnn(C)c3)nc2)cc1 [Compound P-0160, N-[(2-methoxyphenyl)methyl]-2-[4-[2-[(1-methylpyrazol-4-yl)amino]pyrimidin-5-yl]phenyl]acetamide] |
| – | 0.0001 to 10 µM | Cn1cnc(Nc2ncc(-c3ccc(CC(=O)Nc4cnc(F)c(C(C)(F)F)c4)cc3F)cn2)c1 [Compound P-0170, N-[5-(1,1-difluoroethyl)-6-fluoro-3-pyridyl]-2-[3-fluoro-4-[2-[(1-methylimidazol-4-yl)amino]pyrimidin-5-yl]phenyl]acetamide] |
| – | 0.0001 to 10 µM | COc1ncc(NC(=O)Cc2ccc(-c3cnc4[nH]nc(C)c4c3)c(F)c2)cc1C(F)(F)F [Compound P-0174, 2-[3-fluoro-4-(3-methyl-1H-pyrazolo[3,4-b]pyridin-5-yl)phenyl]-N-[6-methoxy-5-(trifluoromethyl)-3-pyridyl]acetamide] |
| – | 0.0001 to 10 µM | Cc1ncc(NC(=O)Cc2cc(F)c(-c3cnc4[nH]nc(C)c4c3)cc2F)cc1C(F)(F)F [Compound P-0175, 2-(2,5-difluoro-4-(3-methyl-1H-pyrazolo[3,4-b]pyridin-5-yl)phenyl)-N-(6-methyl-5-(trifluoromethyl)pyridin-3-yl)acetamide] |
| – | 0.0001 to 10 µM | COc1ncc(NC(=O)Cc2cc(F)c(-c3cnc4[nH]nc(C)c4c3)cc2F)cc1C(F)(F)F [Compound P-0176, 2-[2,5-difluoro-4-(3-methyl-1H-pyrazolo[3,4-b]pyridin-5-yl)phenyl]-N-[6-methoxy-5-(trifluoromethyl)-3-pyridyl]acetamide] |
